Tests used:
[1] = test system: Hedgehog pathway activation on 10T1/2/Smo#3 cells (C3H10T1/2 cells transfected with human Smoothened receptor); assay: Hedgehog pathway activation on 10T1/2/Smo#3 cells measured by ALP activity; format: cell-based; conditions: Mus musculus, C3H 10T1/2, 10T1/2/Smo#3 cells, measured by ALP activity; read-out: ALP (IC50, inhibition of Hedgehog pathway activation)
Summary of the method: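 Inhibition of alkaline phosphatase induction, read fluorometrically from 4-methylumbelliferyl phosphate conversion, gave IC50 values; CellTiter-Blue tracked viability in parallel. Cells were the human Smo-transfected 10T1/2/Smo#3 pool, stimulated by 10-20% hShh conditioned medium or the Smo agonist SAG (500 nM).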

[2] = test system: Hedgehog pathway activation (GLi-luciferase reporter) in Shh Light II reporter cells; assay: Hedgehog pathway activation on Shh Light II reporter cells measured by luciferase activity; format: cell-based; conditions: Mus musculus, Shh Light II, hShh activation, read-out: Shh (IC50, inhibition of Hedgehog pathway activation)
Summary of the method: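 Shh Light II reporter cells carrying a hedgehog-responsive GLi-luciferase reporter were stimulated either with 500 nM SAG, a direct Smoothened agonist, or with conditioned media containing human Sonic Hedgehog (hShh). Test compounds were evaluated for blocking this pathway activation, quantified by luciferase activity. Cell viability was monitored in parallel with the Celltiter-Blue® assay.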

SMILES | IC50 [1] [nM] | IC50 [2] [nM]
O=C(Nc1cc(-c2cn3nc(-c4cccnc4C(F)(F)F)ccc3n2)ccc1F)N1CCCC1 [Example 686, N-(2-fluoro-5-(6-(2-(trifluoromethyl)pyridin-3-yl)imidazo[1,2-b]pyridazin-2-yl)phenyl)pyrrolidine-1-carboxamide] | 218 | 149
CCc1ccc(-c2cn3nc(-c4cccnc4C(F)(F)F)ccc3n2)cc1NC(=O)C1CCCCC1 [Example 687, N-(2-ethyl-5-(6-(2-(trifluoromethyl)pyridin-3-yl)imidazo[1,2-b]pyridazin-2-yl)phenyl)cyclohexanecarboxamide] | 1590 | 463
CCc1ccc(-c2cn3nc(-c4cccnc4C(F)(F)F)ccc3n2)cc1NC(=O)C1CCCC1 [Example 688, N-(2-ethyl-5-(6-(2-(trifluoromethyl)pyridin-3-yl)imidazo[1,2-b]pyridazin-2-yl)phenyl)cyclopentanecarboxamide] | 578 | 103
CCc1ccc(-c2cn3nc(-c4cccnc4C(F)(F)F)ccc3n2)cc1NC(=O)CC(F)(F)F [Example 692, N-(2-ethyl-5-(6-(2-(trifluoromethyl)pyridin-3-yl)imidazo[1,2-b]pyridazin-2-yl)phenyl)-3,3,3-trifluoropropanamide] | 951 | 416
CCc1ccc(-c2cn3nc(-c4cccnc4C(F)(F)F)ccc3n2)cc1NC(=O)N1CCCC1 [Example 694, N-(2-ethyl-5-(6-(2-(trifluoromethyl)pyridin-3-yl)imidazo[1,2-b]pyridazin-2-yl)phenyl)pyrrolidine-1-carboxamide] | 174 | 339
CCc1ccc(-c2cn3nc(-c4cccnc4C(F)(F)F)ccc3n2)cc1NC(=O)N1CC(F)(F)C1 [Example 695, N-(2-ethyl-5-(6-(2-(trifluoromethyl)pyridin-3-yl)imidazo[1,2-b]pyridazin-2-yl)phenyl)-3,3-difluoroazetidine-1-carboxamide] | 158 | 368
CCc1ccc(-c2cn3nc(-c4cccnc4C(F)(F)F)ccc3n2)cc1NC(=O)C1(C)COC1 [Example 696, N-(2-ethyl-5-(6-(2-(trifluoromethyl)pyridin-3-yl)imidazo[1,2-b]pyridazin-2-yl)phenyl)-3-methyloxetane-3-carboxamide] | 229 | 254
NS(=O)(=O)c1cc(-c2cn3nc(-c4cccnc4C(F)(F)F)ccc3n2)ccc1Cl [Example 697, 2-chloro-5-(6-(2-(trifluoromethyl)pyridin-3-yl)imidazo[1,2-b]pyridazin-2-yl)benzenesulfonamide] | > 10000 | > 10000

More lines, now with the values ahead:

IC50 [1] [nM] | IC50 [2] [nM] | SMILES
188 | 64 | CCc1ccc(-c2cn3nc(-c4cccnc4C(F)(F)F)ccc3n2)cc1NC(=O)C(C)(C)CC [Example 689, N-(2-ethyl-5-(6-(2-(trifluoromethyl)pyridin-3-yl)imidazo[1,2-b]pyridazin-2-yl)phenyl)-2,2-dimethylbutanamide]
225 | 59 | CCc1ccc(-c2cn3nc(-c4cccnc4C(F)(F)F)ccc3n2)cc1NC(=O)C(C)(C)C(F)(F)F [Example 690, N-(2-ethyl-5-(6-(2-(trifluoromethyl)pyridin-3-yl)imidazo[1,2-b]pyridazin-2-yl)phenyl)-3,3,3-trifluoro-2,2-dimethylpropanamide]
1220 | 459 | CCc1ccc(-c2cn3nc(-c4cccnc4C(F)(F)F)ccc3n2)cc1NC(=O)CC(C)(C)C [Example 691, N-(2-ethyl-5-(6-(2-(trifluoromethyl)pyridin-3-yl)imidazo[1,2-b]pyridazin-2-yl)phenyl)-3,3-dimethylbutanamide]
186 | 192 | CCc1ccc(-c2cn3nc(-c4cccnc4C(F)(F)F)ccc3n2)cc1NC(=O)N(CC)CC [Example 693, 1,1-diethyl-3-(2-ethyl-5-(6-(2-(trifluoromethyl)pyridin-3-yl)imidazo[1,2-b]pyridazin-2-yl)phenyl)urea]
